From patent publication US7880007B2, “Bicyclic substituted phenyl piperidine modulators of muscarinic receptors” (Vertex Pharmaceuticals Incorporated, priority 2004, dated 2011)

What was measured:
Type in all cases: cell-based
[1] = biological target: T1, M1 muscarinic receptor (Homo sapiens, UniProt P11229); assay: Functional mobilization of intracellular calcium (FLIPR), M1-CHO cells; settings: for M1 Activity: M1-CHO cells, calcium mobilization (FLIPR)
T1 construct: expressed in transfected cells; host or cells: CHO (M1-CHO)
T1 sequence (P11229 1-460): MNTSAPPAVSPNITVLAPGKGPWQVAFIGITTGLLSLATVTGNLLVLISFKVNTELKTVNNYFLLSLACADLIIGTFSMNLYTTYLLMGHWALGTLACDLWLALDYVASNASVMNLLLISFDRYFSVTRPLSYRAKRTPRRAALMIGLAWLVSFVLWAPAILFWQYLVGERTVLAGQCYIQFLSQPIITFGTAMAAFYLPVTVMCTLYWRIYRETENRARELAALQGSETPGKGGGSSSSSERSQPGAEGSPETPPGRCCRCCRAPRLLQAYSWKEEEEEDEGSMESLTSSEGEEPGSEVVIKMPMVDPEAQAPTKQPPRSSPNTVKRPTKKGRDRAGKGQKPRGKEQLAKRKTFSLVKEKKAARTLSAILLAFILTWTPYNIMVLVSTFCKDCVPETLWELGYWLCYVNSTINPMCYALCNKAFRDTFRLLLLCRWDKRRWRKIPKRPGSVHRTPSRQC
Summary of the method: (§1)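 Calcium mobilisation read by FLIPR over 60 s (ex 488/em 540 nm) in recombinant muscarinic CHO lines loaded with calcium dye plus 1 mM probenecid. Compounds tested as agonists alone, or as inhibitors against EC80 carbachol after 15 min pre-incubation or co-addition; 0.5% DMSO; efficacy scaled to carbachol maximal response.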

[2] = biological target: T2, M2 muscarinic receptor (Homo sapiens, UniProt P08172); assay: Functional mobilization of intracellular calcium (FLIPR), M2-CHO cells; settings: for M2 Activity: M2-CHO cells, calcium mobilization (FLIPR)
T2 construct: expressed in transfected cells; host or cells: CHO (M2-CHO)
T2 sequence (P08172 1-466): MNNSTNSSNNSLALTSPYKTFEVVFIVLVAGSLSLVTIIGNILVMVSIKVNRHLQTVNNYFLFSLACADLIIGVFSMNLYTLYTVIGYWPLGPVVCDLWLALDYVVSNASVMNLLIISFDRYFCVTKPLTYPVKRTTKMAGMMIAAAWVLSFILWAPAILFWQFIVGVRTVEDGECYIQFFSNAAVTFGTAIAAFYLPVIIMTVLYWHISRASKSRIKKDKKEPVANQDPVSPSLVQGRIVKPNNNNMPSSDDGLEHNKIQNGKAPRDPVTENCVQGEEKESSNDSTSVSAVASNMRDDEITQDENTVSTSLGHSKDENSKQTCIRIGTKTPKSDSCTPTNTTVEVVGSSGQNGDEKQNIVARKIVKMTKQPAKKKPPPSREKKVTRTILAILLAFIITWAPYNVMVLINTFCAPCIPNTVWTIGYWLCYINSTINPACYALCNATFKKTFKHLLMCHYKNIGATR
Summary of the method: as §1

[3] = biological target: T3, M3 muscarinic receptor (Homo sapiens, UniProt P20309); assay: Functional mobilization of intracellular calcium (FLIPR), M3-CHO cells; settings: for M3 Activity: M3-CHO cells, calcium mobilization (FLIPR)
T3 construct: expressed in transfected cells; host or cells: CHO (M3-CHO)
T3 sequence (P20309 whole entry): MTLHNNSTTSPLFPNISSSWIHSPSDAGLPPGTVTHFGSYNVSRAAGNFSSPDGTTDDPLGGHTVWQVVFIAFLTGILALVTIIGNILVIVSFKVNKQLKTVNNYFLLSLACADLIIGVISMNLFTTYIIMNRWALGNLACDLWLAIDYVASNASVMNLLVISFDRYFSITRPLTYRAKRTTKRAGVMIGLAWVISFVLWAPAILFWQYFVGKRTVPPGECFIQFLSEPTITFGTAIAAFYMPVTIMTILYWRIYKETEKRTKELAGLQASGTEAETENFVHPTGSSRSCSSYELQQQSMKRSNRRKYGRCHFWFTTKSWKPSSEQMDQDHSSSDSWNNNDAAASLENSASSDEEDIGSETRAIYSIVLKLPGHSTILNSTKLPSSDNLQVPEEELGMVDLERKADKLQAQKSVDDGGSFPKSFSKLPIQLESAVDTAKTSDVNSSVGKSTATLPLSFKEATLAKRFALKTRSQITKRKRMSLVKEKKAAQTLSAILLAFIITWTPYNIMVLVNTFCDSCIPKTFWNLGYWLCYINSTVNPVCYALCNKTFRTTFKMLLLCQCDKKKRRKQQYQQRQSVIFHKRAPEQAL
Summary of the method: as §1

[4] = biological target: T4, M4 muscarinic receptor (Homo sapiens, UniProt P08173); assay: Functional mobilization of intracellular calcium (FLIPR), M4-CHO cells; settings: for M4 Activity: M4-CHO cells, calcium mobilization (FLIPR)
T4 construct: expressed in transfected cells; host or cells: CHO (M4-CHO)
T4 sequence (P08173 1-479): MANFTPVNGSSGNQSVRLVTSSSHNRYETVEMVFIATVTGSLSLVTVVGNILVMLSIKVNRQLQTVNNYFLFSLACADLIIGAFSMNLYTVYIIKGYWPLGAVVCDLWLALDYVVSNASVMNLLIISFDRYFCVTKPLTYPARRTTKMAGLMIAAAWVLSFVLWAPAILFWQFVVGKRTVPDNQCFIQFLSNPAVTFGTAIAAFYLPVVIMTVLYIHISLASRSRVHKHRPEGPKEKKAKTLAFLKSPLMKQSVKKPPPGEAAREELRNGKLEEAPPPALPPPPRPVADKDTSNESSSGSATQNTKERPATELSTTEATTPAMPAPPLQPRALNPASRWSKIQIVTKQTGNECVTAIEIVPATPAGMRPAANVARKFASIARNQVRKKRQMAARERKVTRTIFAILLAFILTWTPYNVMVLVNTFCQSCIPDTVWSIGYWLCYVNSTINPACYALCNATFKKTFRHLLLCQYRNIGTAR
Summary of the method: as §1

[5] = 100% efficacy = maximum response obtained with the Carbachol control
[6] = 100% efficacy is the maximum response obtained with the Carbachol control

Emax [1, 5] | Emax [2, 5] | Emax [3, 5] | Emax [4, 5] | Emax [1, 6] | Emax [2, 6] | Emax [3, 6] | Emax [4, 6] | Structure (SMILES) | M1 Activity [1] | M2 Activity [2] | M3 Activity [3] | M4 Activity [4]
25 to 100% | < 25% | < 25% | 25 to 100% | – | – | – | – | COc1ccccc1C1CCN(C2CCCCC2)CC1 [Compound 113] | ++ (activity was measured to be from 1.0 μM to 5.0 μM) | + (activity was measured to be greater than 5.0 μM) | + (activity was measured to be greater than 5.0 μM) | +++ (activity was measured to be less than 1.0 μM)
25 to 100% | < 25% | < 25% | 25 to 100% | – | – | – | – | COc1ccccc1C1CCN(C2CCCCCC2)CC1 [Compound 224] | + (activity was measured to be greater than 5.0 μM) | + (activity was measured to be greater than 5.0 μM) | + (activity was measured to be greater than 5.0 μM) | +++ (activity was measured to be less than 1.0 μM)
25 to 100% | < 25% | < 25% | 25 to 100% | – | – | – | – | COc1ccc(-c2ccc(OC(F)(F)F)cc2)cc1C1CCN([C@H]2C[C@H]3CC[C@H]2C3)CC1 [Compound 126] | + (activity was measured to be greater than 5.0 μM) | + (activity was measured to be greater than 5.0 μM) | + (activity was measured to be greater than 5.0 μM) | + (activity was measured to be greater than 5.0 μM)
< 25% | < 25% | < 25% | < 25% | – | – | – | – | CCNC(=O)c1ccc(-c2ccc(OC)c(C3CCN([C@H]4C[C@H]5CC[C@H]4C5)CC3)c2)cc1 [Compound 84] | + (activity was measured to be greater than 5.0 μM) | + (activity was measured to be greater than 5.0 μM) | + (activity was measured to be greater than 5.0 μM) | + (activity was measured to be greater than 5.0 μM)
25 to 100% | < 25% | < 25% | 25 to 100% | – | – | – | – | COc1ccc(-c2ccc(S(=O)(=O)N3CCCC3)cc2)cc1C1CCN(C2CCCCC2)CC1 [Compound 332] | + (activity was measured to be greater than 5.0 μM) | + (activity was measured to be greater than 5.0 μM) | + (activity was measured to be greater than 5.0 μM) | + (activity was measured to be greater than 5.0 μM)

Continued, compound first:

Structure (SMILES) | Emax [1, 5] | Emax [2, 5] | Emax [3, 5] | Emax [4, 5] | Emax [1, 6] | Emax [2, 6] | Emax [3, 6] | Emax [4, 6] | M1 Activity [1] | M2 Activity [2] | M3 Activity [3] | M4 Activity [4]
COc1ccc(-c2cccnc2)cc1C1CCN([C@H]2C[C@H]3CC[C@H]2C3)CC1 [Compound 148] | < 25% | < 25% | < 25% | < 25% | – | – | – | – | + (activity was measured to be greater than 5.0 μM) | + (activity was measured to be greater than 5.0 μM) | + (activity was measured to be greater than 5.0 μM) | + (activity was measured to be greater than 5.0 μM)
CCOC(=O)N1CCC(CN2CCC(c3cc(-c4ccc(C(C)(C)C#N)cc4)ccc3OC)CC2)CC1 [Compound 272] | 25 to 100% | < 25% | < 25% | 25 to 100% | – | – | – | – | +++ (activity was measured to be less than 1.0 μM) | + (activity was measured to be greater than 5.0 μM) | + (activity was measured to be greater than 5.0 μM) | +++ (activity was measured to be less than 1.0 μM)
Cc1ccc(-c2ccccc2C2CCN([C@H]3C[C@H]4CC[C@H]3C4)CC2)c(C)c1 [Compound 386] | – | – | – | – | < 25% | < 25% | < 25% | 25 to 100% | + (activity was measured to be greater than 5.0 μM) | + (activity was measured to be greater than 5.0 μM) | + (activity was measured to be greater than 5.0 μM) | + (activity was measured to be greater than 5.0 μM)
COc1ccccc1C1(O)CCN(C2CC3CCC2C3)CC1 (centres unmarked) [Compound 25] | < 25% | < 25% | – | < 25% | – | – | – | – | + (activity was measured to be greater than 5.0 μM) | + (activity was measured to be greater than 5.0 μM) | + (activity was measured to be greater than 5.0 μM) | + (activity was measured to be greater than 5.0 μM)
COc1ccc(F)cc1C1(O)CCN(CC2CCOCC2)CC1 [Compound 231] | < 25% | < 25% | < 25% | < 25% | – | – | – | – | + (activity was measured to be greater than 5.0 μM) | + (activity was measured to be greater than 5.0 μM) | + (activity was measured to be greater than 5.0 μM) | + (activity was measured to be greater than 5.0 μM)
COc1ccc(Cl)cc1C1CCN(C2CC[S+]([O-])CC2)CC1 (centres unmarked) [Compound 248] | < 25% | < 25% | < 25% | 25 to 100% | – | – | – | – | + (activity was measured to be greater than 5.0 μM) | + (activity was measured to be greater than 5.0 μM) | + (activity was measured to be greater than 5.0 μM) | + (activity was measured to be greater than 5.0 μM)
COc1ccc(Cl)cc1C1(F)CCN(C2C3CCCC2CCC3)CC1 (centres unmarked) [Compound 74] | < 25% | < 25% | < 25% | < 25% | – | – | – | – | + (activity was measured to be greater than 5.0 μM) | + (activity was measured to be greater than 5.0 μM) | + (activity was measured to be greater than 5.0 μM) | + (activity was measured to be greater than 5.0 μM)
COc1ccc(-c2ccccc2C2CCN([C@H]3C[C@H]4CC[C@H]3C4)CC2)cc1 [Compound 241] | 25 to 100% | < 25% | < 25% | 25 to 100% | – | – | – | – | + (activity was measured to be greater than 5.0 μM) | + (activity was measured to be greater than 5.0 μM) | + (activity was measured to be greater than 5.0 μM) | ++ (activity was measured to be from 1.0 μM to 5.0 μM)
COc1ccc(-c2ccc(F)cc2F)cc1C1CCN([C@H]2C[C@H]3CC[C@H]2C3)CC1 [Compound 48] | 25 to 100% | < 25% | < 25% | 25 to 100% | – | – | – | – | + (activity was measured to be greater than 5.0 μM) | + (activity was measured to be greater than 5.0 μM) | + (activity was measured to be greater than 5.0 μM) | + (activity was measured to be greater than 5.0 μM)
COc1ccccc1C1CCN(C2CCCS(=O)(=O)CC2)CC1 (centres unmarked) [Compound 66] | 25 to 100% | < 25% | < 25% | 25 to 100% | – | – | – | – | + (activity was measured to be greater than 5.0 μM) | + (activity was measured to be greater than 5.0 μM) | + (activity was measured to be greater than 5.0 μM) | ++ (activity was measured to be from 1.0 μM to 5.0 μM)
